Reference: article PMC4280898, “Diazido Mixed-Amine Platinum(IV) Anticancer Complexes Activatable by Visible-Light Form Novel DNA Adducts” (Chemistry (Weinheim an Der Bergstrasse, Germany), 2013)

Key:
[1] = system: 212 bp NdeI–HpaI fragment of pSP73KB DNA; experiment: Transcription mapping of DNA adducts (T7 RNA polymerase); format: biochemical; settings: in the dark; rb=0.01
Method: Sequence preference of DNA adducts: Transcription mapping experiments were performed to determine the DNA binding sites for Pt complexes. The experiments were carried out using a linear 212 bp DNA fragment (sequence in Figure 9 B), randomly modified by transplatin (8), cisplatin (7), 5 or 6 in the dark or by 1 and 2 photoactivated with blue light (420 nm) at rb=0.01 (rb is defined as the number of the molecules of platinum complex coordinated per nucleotide residue), for RNA synthesis by T7 RNA polymerase (Figure 9 A, lanes 8, 7, 5, 6, 1 and 2, respectively). RNA synthesis on the template modified by the platinum complexes produced fragments of defined sizes (Figure 9 A), which indicate the sites where RNA synthesis was prematurely terminated. It should be noted that RNA synthesis by T7 RNA polymerase is prematurely terminated only due to the platinum adducts on the template strand.[23] […] The ability to bind to A and C sites is consistent with the result from AMP and CMP binding experiments (Figure S18 in the Supporting Information).
Figure 9 Inhibition of RNA synthesis by T7 RNA polymerase on the NdeI–HpaI fragment of pSP73KB plasmid DNA modified by complexes 5 or 6, cisplatin (7) or transplatin (8) in the dark, or with photoactivated 1 or 2 (420 nm light). A) Autoradiogram of a polyacrylamide (6 %)/urea (8 M) sequencing gel. […]
assayed by differential pulse polarography for free, unbound platinum.[16] The amount of platinum bound to DNA was calculated by subtracting the amount of free (unbound) platinum from the total amount of platinum present in the reaction. […]
This fragment contained T7 RNA polymerase promoter (in the upper strand close to its 3'-end). […] The fragments produced in RNA synthesis on the template modified by the platinum complexes were analysed by a 6% polyacrylamide/8M urea sequencing gel.
Quantification of DNA adducts […]
Platinum associated with DNA was assessed by flameless atomic absorption […]
Quantification of DNA interstrand cross-links […]

A2780cis cells = experiment: SRB proliferation assay for non-light-sensitive complexes, A2780cis; format: cell-based, human; settings: for Resistance factor: A2780cis vs A2780, SRB assay; for IC50: ambient light, 24 h exposure, 72 h recovery, SRB
Method: Cytotoxicity of platinum(II) precursors: To investigate the relationship between the Pt^IV diazidodihydroxido complexes and their Pt^II dichlorido analogues trans-[PtCl2(Am1)(Am2)] (where Am=amine), the cytotoxicities of complexes trans-[PtCl2(MA)(Py)] (5) and trans-[PtCl2(MA)(Tz)] (6) towards A2780 and its cisplatin resistant sub-line A2780cis were determined. The toxicity was not photoinduced, as the complexes are not photoactive. Complexes 5 and 6 are highly cytotoxic towards A2780 and A2780cis cells compared to the reported trans-Pt^II compounds.[18]–[22] Complex 5 is about three-times more cytotoxic than complex 6 towards A2780 cells. […]
Cell Culture and Proliferation Assay for Non-light-sensitive Complexes
The A2780 ovarian cell line was obtained from the ECACC (European Collection of Animal Cell Culture, Salisbury, United Kingdom). The cells were maintained in RPMI 1640 media, which was supplemented with 10% foetal calf serum, 1% L-glutamine, and 1% penicillin/streptomycin. All cells were grown at 310 K in an humidified atmosphere containing 5% CO2. Stock solutions of the Pt complexes were freshly prepared in DMSO to assist dissolution and then diluted into saline and medium (maximum final concentration of DMSO 1% and saline 6%). After plating 5000 A2780 cells per well on day 1, Pt complexes were added to the cancer cells on day 3 at concentrations ranging from 0.01 to 100 µM, depending on the preliminary activity data obtained in screening assays. Cells were exposed to the complexes for 24 h, washed with PBS, supplied with fresh medium, and allowed to grow for three doubling times (72 h), and then the protein content (proportional to cell survival) was measured using the sulforhodamine B (SRB) assay.[7] The standard errors are based on two independent experiments of three replicates each.[8]

SMILES | Sequence specificity [1] | Resistance factor (A2780cis cells) | IC50 (A2780cis cells) [µM]
C[NH2+][Pt@SP3-2]([Cl])([Cl])[n+]1ccccc1 [Complex 5, trans-[PtCl2(MA)(Py)]] | stop sites mainly at G and C and G, C | 1.25 | 3 ± 0.7
C[NH2+][Pt@SP3-2]([Cl])([Cl])[n+]1ccsc1 [Complex 6, trans-[PtCl2(MA)(Tz)]] | stop sites mainly at G and C and G, C | 1.0 | 6.8 ± 0.9
